Test results taken from US9387221B2, “SDF-1 binding nucleic acids and the use thereof in cancer treatment” (NOXXON Pharma AG, priority 2010, dated 2016).
Entries after “also recorded” stand apart in the source; their conditions may differ.

Test system: biotinylated human D-SDF-1
Experiment: Competitive pull-down binding assay
Settings: for binding to human SDF-1 in comparison to 193-G2-001: reference 193-G2-001; for binding affinity in competitive pull-down binding assay vs. 192-A10-001: aptamer level, reference 192-A10-001; for binding affinity of derivatives of 192-A10-001 in competitive pull-down binding assay: vs. 192-A10-001 and 192-A10-008; for binding affinity in competitive pull-down binding assay vs. 191-D5-007: reference 191-D5-007; for binding affinity of derivatives of 193-G2-001 and 193-C2-001 in competitive pull-down binding assay: vs. 193-G2-001 and 193-G2-012; for binding affinity of derivatives of 190-A3-001: compared with 190-A3-001
Protocol: In order to compare different D-SDF-1 binding aptamers, a competitive ranking assay was performed. For this purpose the most affine aptamer available was radioactively labeled (see above) and served as reference. […] An excess of de- and renatured non-labeled D-RNA aptamer variants was added to different concentrations (e.g. 2, 10, and 50 nM) with the labeled reference aptamer to parallel binding reactions. The aptamers to be tested competed with the reference aptamer for target binding, thus decreasing the binding signal in dependence of their binding characteristics.

**Q.** How did the “binding to human SDF-1 in comparison to 193-G2-001” value (“binding … to 193-G2-001” for short) turn out when “GCGUGGUGUGAUCUAGAUGUAGUGGCUGAUCCUAGUCAGGUGCGC (chemistry not fully specified) [193-D2-002]” was run?
**A.** reduced binding; also recorded: weaker binding affinities

**Q.** How did the “binding … to 193-G2-001” value turn out when “GCGUGGUGUGAUCUAGAUGUAGUGGCUGAUCCUAGUUAGGUACGC (chemistry not fully specified) [193-D1-002]” was run?
**A.** reduced binding

**Q.** With “GCUAUGAAAGUAACAUGUCAAUGAAAGGUAACCAUAGC (aptamer; Made as D-RNA aptamer and L-RNA Spiegelmer, tested form not given here, further chemistry not given here) [192-H11]” as the substance, how does the “binding affinity in competitive pull-down binding assay vs. 192-A10-001” value read?
**A.** Weaker binding affinity

**Q.** How did the “binding affinity in competitive pull-down binding assay vs. 192-A10-001” value turn out when “GCUGCGAAAGCGACAUGUCAAUGAAAGGUAGCCGCAGC (aptamer; Made as D-RNA aptamer and L-RNA Spiegelmer, tested form not given here, further chemistry not given here) [192-D10]” was run?
**A.** much weaker binding affinity

**Q.** Which “binding affinity in competitive pull-down binding assay vs. 192-A10-001” value does the source give for “GCUGUAAAAGUAACAAGUCAAUGAAAGGUAACUACAGC (aptamer; Made as D-RNA aptamer and L-RNA Spiegelmer, tested form not given here, further chemistry not given here) [192-E10]” here?
**A.** Weaker binding affinity; also recorded: reduced binding affinity

**Q.** “GCUGUAAAAGUAACAUGUCAAUGAAAGGUAACUACAGC (aptamer; Made as D-RNA aptamer and L-RNA Spiegelmer, tested form not given here, further chemistry not given here) [192-C9]” was tested. Which “binding affinity in competitive pull-down binding assay vs. 192-A10-001” value did it give?
**A.** Weaker binding affinity

**Q.** With “GCUGUGAAAGCAACAUGUCAAUGAAAGGUAGCCACAGC (aptamer; Made as D-RNA aptamer and L-RNA Spiegelmer, tested form not given here, further chemistry not given here) [192-E9]” as the substance, how does the “binding affinity in competitive pull-down binding assay vs. 192-A10-001” value read?
**A.** much weaker binding affinity

**Q.** For “GCUGUGAAAGUAACAAGUCAAUGAAAGGUAACCACAGC (aptamer; Made as D-RNA aptamer and L-RNA Spiegelmer, tested form not given here, further chemistry not given here) [192-C10]”, which “binding affinity in competitive pull-down binding assay vs. 192-A10-001” value is on record?
**A.** equal binding affinities; also recorded: equal binding affinity

**Q.** How did the “binding affinity in competitive pull-down binding assay vs. 192-A10-001” value turn out when “GCUGUGAAAGUAACACGUCAAUGAAAGGUAACCACAGC (aptamer; Made as D-RNA aptamer and L-RNA Spiegelmer, tested form not given here, further chemistry not given here) [192-B11]” was run?
**A.** equal binding affinities; also recorded: equal binding affinity

**Q.** Which “binding affinity in competitive pull-down binding assay vs. 192-A10-001” value does the source give for “GCUGUGAAAGUAACACGUCAAUGAAAGGUAACCGCAGC (aptamer; Made as D-RNA aptamer and L-RNA Spiegelmer, tested form not given here, further chemistry not given here) [192-F10]” here?
**A.** Weaker binding affinity; also recorded: reduced binding affinity

**Q.** For “GCUGUGAAAGUAACAUGUCAAUGAAAGGUAACCACAGC (aptamer; Made as D-RNA aptamer and L-RNA Spiegelmer, tested form not given here, further chemistry not given here) [192-G10]”, which “binding affinity in competitive pull-down binding assay vs. 192-A10-001” value is on record?
**A.** Weaker binding affinity

**Q.** With “GCUGUGAAAGUAACAUGUCAAUGAAAGGUAACCACUGC (aptamer; Made as D-RNA aptamer and L-RNA Spiegelmer, tested form not given here, further chemistry not given here) [192-G11]” as the substance, how does the “binding affinity in competitive pull-down binding assay vs. 192-A10-001” value read?
**A.** Weaker binding affinity

**Q.** How did the “binding affinity in competitive pull-down binding assay vs. 192-A10-001” value turn out when “GCUGUGAAAGUAACAUGUCAAUGAAAGGUAGCCGCAGC (aptamer; Made as D-RNA aptamer and L-RNA Spiegelmer, tested form not given here, further chemistry not given here) [192-H9]” was run?
**A.** much weaker binding affinity

**Q.** Which “binding affinity of derivatives of 192-A10-001 in competitive pull-down binding assay” value does the source give for “GGCCAAAGCAACAUGUCAAUGAAAGGUAGCGGCC (aptamer; chemistry not given here) [192-A10-021]” here?
**A.** weaker, much weaker or very much weaker binding affinity

**Q.** “GGCCGGGGUUAGGGCUAGAAGUCGGCCGGCC (chemistry not fully specified) [197-B2-006-31a]” was tested. Which “binding affinity in competitive pull-down binding assay vs. 191-D5-007” value did it give?
**A.** the same as shown for 191-D5-007 and 197-B2-006

**Q.** Which “binding affinity of derivatives of 193-G2-001 and 193-C2-001 in competitive pull-down binding assay” value does the source give for “GGCCGUGUGAUCUAGAUGUAUUGGCUGAUCCUAGUCAGGGGCC (chemistry not fully specified) [193-G2-016]” here?
**A.** reduced binding affinity

**Q.** How did the “binding affinity in competitive pull-down binding assay vs. 191-D5-007” value turn out when “GGCGGGUUAGGGCUAGAAGUCGGCGCC (chemistry not fully specified) [191-D5-024]” was run?
**A.** reduced binding affinity

**Q.** For “GGGCAAAGCAACAUGUCAAUGAAAGGUAGCGCCC (aptamer; chemistry not given here) [192-A10-020]”, which “binding affinity of derivatives of 192-A10-001 in competitive pull-down binding assay” value is on record?
**A.** weaker, much weaker or very much weaker binding affinity

**Q.** For “GGGCGGGUUAGGGCUAGAAGUCGGCGCCC (chemistry not fully specified) [191-D5-024-29b]”, which “binding affinity in competitive pull-down binding assay vs. 191-D5-007” value is on record?
**A.** identical binding affinity to SDF-1 as 191-D5-007

**Q.** With “GGGCGUGUGAUCUAGAUGUAUUGGCUGAUCCUAGUCAGGGCCC (chemistry not fully specified) [193-G2-015]” as the substance, how does the “binding affinity of derivatives of 193-G2-001 and 193-C2-001 in competitive pull-down binding assay” value read?
**A.** reduced binding affinity

**Q.** “GGGGUUAGGGCUUAAAGUCGGCUGAUUCU (Made as D-RNA aptamer and L-RNA Spiegelmer, tested form not given here, further chemistry not given here) [190-A3-007]” was tested. Which “binding affinity of derivatives of 190-A3-001” value did it give?
**A.** very strong reduction of binding affinity

**Q.** How did the “binding affinity of derivatives of 193-G2-001 and 193-C2-001 in competitive pull-down binding assay” value turn out when “GGUGUGAUCUAGAUGUAGUGGCUGAUCCUAGUCAGGU (Listed both as L-RNA Spiegelmer and D-RNA aptamer, further chemistry not given here) [193-C2-006]” was run?
**A.** reduced binding affinity

**Q.** How did the “binding affinity of derivatives of 192-A10-001 in competitive pull-down binding assay” value turn out when “GUGAAAGCAACAUGUCAAUGAAAGGUAGCCGC (chemistry not given here) [192-A10-004]” was run?
**A.** reduced binding affinity

**Q.** With “GUGCAAAGCAACAUGUCAAUGAAAGGUAGCGCGC (aptamer; chemistry not given here) [192-A10-018]” as the substance, how does the “binding affinity of derivatives of 192-A10-001 in competitive pull-down binding assay” value read?
**A.** weaker, much weaker or very much weaker binding affinity

**Q.** For “GUGCUGCCGGGGUUAGGGCUAA-AGUCGGCCGACAGCAC (GUGCUGCCGGGGUUAGGGCUAAAGUCGGCCGACAGCAC; chemistry not given here) [197-D1]”, which “binding affinity in competitive pull-down binding assay vs. 192-A10-001” value is on record?
**A.** Much weaker binding affinity

**Q.** Which “binding affinity in competitive pull-down binding assay vs. 192-A10-001” value does the source give for “GUGCUGCGGGGGUUAGGGCUCAAAGUCGGCCUGCAGCAC (chemistry not given here) [197-H2]” here?
**A.** Much weaker binding affinity

**Q.** For “GUGCUGCGGGGGUUAGGGCUCGAAGUCGGCCCGCAGCAC (chemistry not given here) [197-H3]”, which “binding affinity in competitive pull-down binding assay vs. 192-A10-001” value is on record?
**A.** weaker binding affinities

**Q.** How did the “binding affinity in competitive pull-down binding assay vs. 192-A10-001” value turn out when “GUGCUGUGGGGGUCAGGGCUAGAAGUCGGCCUGCAGCAC (chemistry not given here) [197-D2]” was run?
**A.** Much weaker binding affinity

**Q.** With “GUGGUGUGAUCUAGAUGUAGUGGCUGAUCCUAGUCAGGUAC (chemistry not fully specified) [193-C2-004]” as the substance, how does the “binding affinity of derivatives of 193-G2-001 and 193-C2-001 in competitive pull-down binding assay” value read?
**A.** reduced binding affinity

**Q.** Which “binding … to 193-G2-001” value does the source give for “GUGGUGUGAUCUAGAUGUAGUGGCUGUUCCUAGUCAGGUAUGC (chemistry not fully specified) [193-E3-002]” here?
**A.** reduced binding

**Q.** With “GUGUGAUCUAGAUGUAGUGGCUGAUCCUAGUCAGG (Listed both as L-RNA Spiegelmer and D-RNA aptamer, further chemistry not given here) [193-C2-007]” as the substance, how does the “binding affinity of derivatives of 193-G2-001 and 193-C2-001 in competitive pull-down binding assay” value read?
**A.** reduced binding affinity

**Q.** With “GUGUUCCCGGGGUUAGGGCUUGAAGUCGGCCGGCAGCAC (aptamer; chemistry not fully specified) [197-B1]” as the substance, how does the “binding affinity in competitive pull-down binding assay vs. 192-A10-001” value read?
**A.** Much weaker binding affinity

**Q.** Which “binding affinity in competitive pull-down binding assay vs. 192-A10-001” value does the source give for “GUGUUGCAGGGGUUAGGGCUUGAAGUCGGCCUGCAGCAC (chemistry not given here) [197-E3]” here?
**A.** weaker binding affinities

**Q.** With “GUGUUGCGGAGGUUAGGGCUAGAAGUCGGUCAGCAGCAC (chemistry not given here) [197-H1]” as the substance, how does the “binding affinity in competitive pull-down binding assay vs. 192-A10-001” value read?
**A.** weaker binding affinities

**Q.** Which “binding affinity of derivatives of 192-A10-001 in competitive pull-down binding assay” value does the source give for “UGAAAGCAACAUGUCAAUGAAAGGUAGCCG (chemistry not fully specified) [192-A10-005]” here?
**A.** reduced binding affinity

**Q.** “UGAGAUAGGGGUUAGGGCUUAAAGUCGGCUGAUUCUCA (aptamer; Made as D-RNA aptamer and L-RNA Spiegelmer, tested form not given here, further chemistry not given here) [190-A3-003]” was tested. Which “binding affinity of derivatives of 190-A3-001” value did it give?
**A.** does not have an influence on the binding affinity

**Q.** “UGGUGUGAUCUAGAUGUAGUGGCUGAUCCUAGUCAGGUA (Made as D-RNA aptamer and L-RNA Spiegelmer, tested form not given here, further chemistry not given here) [193-C2-005]” was tested. Which “binding affinity of derivatives of 193-G2-001 and 193-C2-001 in competitive pull-down binding assay” value did it give?
**A.** reduced binding affinity

**Q.** “UGUGAAAGCAACAUGUCAAUGAAAGGUAGCCGCA (aptamer; chemistry not given here) [192-A10-003]” was tested. Which “binding affinity of derivatives of 192-A10-001 in competitive pull-down binding assay” value did it give?
**A.** reduced binding affinity
